Assay results taken from patent publication US10874743B2, “IRAK degraders and uses thereof” (Kymera Therapeutics, Inc., priority 2017, dated 2020).
Like-named read-outs stand apart in the source and are kept apart here.

Assay: Pharmacokinetics in Sprague Dawley rats (plasma and brain concentrations, PK parameters)
Type: in vivo
Settings: for half-life: read-out: T1/2 (converted)
Protocol: Pharmacokinetics for I-127, I-172 and I-210 were determined in Sprague Dawley rats or CD-1 mice by dosing intravenous (IV), subcutaneous (SC) or per oral (PO) using facility SOPs and sampling plasma at required time points. Species, formulation, route of administration and time points samples are listed below for each compound.
Compounds were extracted from plasma, injected on reverse phase HPLC, eluted with a gradient from 5% to 95% acetonitrile in water and quantified by mass spectrometry with internal standard. Data are expressed in ng compound per mL of plasma.

[1] = Sprague Dawley, rat, plasma, po, 10 mg/kg, Sprague Dawley rat, po 10 mg/kg, plasma, Rat 4, read-out: Concentration Rat 4
[2] = Sprague Dawley, rat, plasma, po, 10 mg/kg, Sprague Dawley rat, po 10 mg/kg, plasma, Rat 5, read-out: Concentration Rat 5
[3] = Sprague Dawley, rat, plasma, po, 10 mg/kg, Sprague Dawley rat, po 10 mg/kg, plasma, Rat 6, read-out: Concentration Rat 6
[4] = Sprague Dawley, rat, plasma, po, 10 mg/kg, Sprague Dawley rat, po 10 mg/kg, plasma, mean of 3 rats, read-out: Concentration Mean
[5] = Sprague-Dawley, rat, plasma, iv, 3 mg/kg, Sprague Dawley rat, iv 3 mg/kg, plasma, Rat 1, read-out: Concentration Rat 1
[6] = Sprague-Dawley, rat, plasma, iv, 3 mg/kg, Sprague Dawley rat, iv 3 mg/kg, plasma, Rat 2, read-out: Concentration Rat 2
[7] = Sprague-Dawley, rat, plasma, iv, 3 mg/kg, Sprague Dawley rat, iv 3 mg/kg, plasma, Rat 3, read-out: Concentration Rat 3
[8] = Sprague-Dawley, rat, plasma, iv, 3 mg/kg, Sprague Dawley rat, iv 3 mg/kg, plasma, mean of 3 rats, read-out: Concentration Mean

Q: Which AUC(0-t) (Sprague Dawley, rat, plasma, po, 10 mg/kg, Rat (Sprague Dawley) po 10 mg/kg, Mean, read-out: AUClast) does the source give for `O=C1CCC(N2C(=O)c3cccc(NCCOCCOCCNCc4ccc(-n5cc(NC(=O)c6coc(-c7ccnc(NCC8CC8)c7)n6)c(C(F)F)n5)cc4)c3C2=O)C(=O)N1` (stereo not drawn) [I-210, 2-[2-(Cyclopropylmethylamino)-4-pyridyl]-N-[3-(difluoromethyl)-1-[4-[[2-[2-[2-[[2-(2,6-dioxo-3-piperidyl)-1,3-dioxoisoindolin-4-yl]amino]ethoxy]ethoxy]ethylamino]methyl]phenyl]pyrazol-4-yl]oxazole-4-carboxamide] here?
A: 15.2 ng·h/mL

Q: What about the Cmax (Sprague Dawley, rat, plasma, po, 10 mg/kg, Rat (Sprague Dawley) po 10 mg/kg, Mean, read-out: Cmax) of the same molecule?
A: 2.91 ng/mL

Q: What about the MRT inf (Sprague Dawley, rat, plasma, po, 10 mg/kg, Rat (Sprague Dawley) po 10 mg/kg, Mean, read-out: MRTInf_obs) of the same molecule?
A: 8.9 h

Q: And the half-life (Sprague Dawley, rat, plasma, po, 10 mg/kg, Rat (Sprague Dawley) po 10 mg/kg, Mean)?
A: 4.88 h

Q: And the MRT inf (Sprague Dawley, rat, plasma, po, 10 mg/kg, Rat (Sprague Dawley) po 10 mg/kg, individual Rat 4-6, read-out: MRTInf_obs)?
A: 7.27 h

Q: What about the half-life (Sprague Dawley, rat, plasma, po, 10 mg/kg, Rat (Sprague Dawley) po 10 mg/kg, individual Rat 4-6) of the same molecule?
A: 3.72 h

Q: What about the concentration at 0.25 h [1] of the same molecule?
A: 0.716 ng/mL

Q: And the concentration at 0.25 h [2]?
A: 0.359 ng/mL

Q: And the concentration at 0.25 h [3]?
A: 0.3 ng/mL

Q: And the concentration at 0.25 h [4]?
A: 0.458 ng/mL

Q: And the concentration at 0.5 h [1]?
A: 0.914 ng/mL

Q: What about the concentration at 0.5 h [2] of the same molecule?
A: 0.366 ng/mL

Q: What about the concentration at 0.5 h [3] of the same molecule?
A: 0.377 ng/mL

Q: What about the concentration at 0.5 h [4] of the same molecule?
A: 0.552 ng/mL

Q: What about the concentration at 1 h [1] of the same molecule?
A: 1.39 ng/mL

Q: And the concentration at 1 h [2]?
A: 0.438 ng/mL

Q: What about the concentration at 1 h [3] of the same molecule?
A: 0.426 ng/mL

Q: And the concentration at 1 h [4]?
A: 0.75 ng/mL

Q: And the concentration at 2 h [1]?
A: 1.55 ng/mL

Q: And the concentration at 2 h [2]?
A: 2.39 ng/mL

Q: What about the concentration at 2 h [3] of the same molecule?
A: 0.737 ng/mL

Q: What about the concentration at 2 h [4] of the same molecule?
A: 1.56 ng/mL

Q: And the concentration at 4 h [1]?
A: 3.5 ng/mL

Q: What about the concentration at 4 h [2] of the same molecule?
A: 4.02 ng/mL

Q: What about the concentration at 4 h [3] of the same molecule?
A: 1.2 ng/mL

Q: And the concentration at 4 h [4]?
A: 2.91 ng/mL

Q: And the concentration at 8 h [1]?
A: 1.66 ng/mL

Q: What about the concentration at 8 h [2] of the same molecule?
A: 2.46 ng/mL

Q: And the concentration at 8 h [3]?
A: 0.71 ng/mL

Q: What about the concentration at 8 h [4] of the same molecule?
A: 1.61 ng/mL

Q: What about the concentration at 4 h (Sprague-Dawley, rat, brain, iv, 3 mg/kg, Rat (Sprague Dawley) iv 3 mg/kg (IVB), brain, Group 1, Group 2, detected value multiplied by 3, read-out: brain Actual Conc.) of the same molecule?
A: 42.6 ng/g

Q: And the concentration at 4 h (Sprague-Dawley, rat, brain, iv, 3 mg/kg, Rat (Sprague Dawley) iv 3 mg/kg (IVB), brain, Mean, read-out: brain Actual Conc.)?
A: 39.9 ng/g

Q: What about the MRT inf (Sprague-Dawley, rat, plasma, iv, 3 mg/kg, Sprague Dawley rat, iv 3 mg/kg, Rat 1, read-out: MRTInf_obs Rat 1) of the same molecule?
A: 3.26 h

Q: What about the MRT inf (Sprague-Dawley, rat, plasma, iv, 3 mg/kg, Sprague Dawley rat, iv 3 mg/kg, Rat 2, read-out: MRTInf_obs Rat 2) of the same molecule?
A: 3.15 h

Q: And the MRT inf (Sprague-Dawley, rat, plasma, iv, 3 mg/kg, Sprague Dawley rat, iv 3 mg/kg, Rat 3, read-out: MRTInf_obs Rat 3)?
A: 2.92 h

Q: And the MRT inf (Sprague-Dawley, rat, plasma, iv, 3 mg/kg, Sprague Dawley rat, iv 3 mg/kg, mean of 3 rats, read-out: MRTInf_obs Mean)?
A: 3.11 h

Q: What about the concentration at 5 min [5] of the same molecule?
A: 671 ng/mL

Q: What about the concentration at 5 min [6] of the same molecule?
A: 652 ng/mL

Q: And the concentration at 5 min [7]?
A: 700 ng/mL

Q: What about the concentration at 5 min [8] of the same molecule?
A: 674 ng/mL

Q: What about the concentration at 0.25 h [5] of the same molecule?
A: 396 ng/mL

Q: And the concentration at 0.25 h [6]?
A: 418 ng/mL

Q: And the concentration at 0.25 h [7]?
A: 469 ng/mL

Q: And the concentration at 0.25 h [8]?
A: 428 ng/mL

Q: What about the concentration at 0.5 h [5] of the same molecule?
A: 307 ng/mL

Q: What about the concentration at 0.5 h [6] of the same molecule?
A: 292 ng/mL

Q: What about the concentration at 0.5 h [7] of the same molecule?
A: 312 ng/mL

Q: What about the concentration at 0.5 h [8] of the same molecule?
A: 304 ng/mL

Q: And the concentration at 1 h [5]?
A: 236 ng/mL

Q: And the concentration at 1 h [6]?
A: 232 ng/mL

Q: And the concentration at 1 h [7]?
A: 207 ng/mL

Q: What about the concentration at 1 h [8] of the same molecule?
A: 225 ng/mL

Q: And the concentration at 2 h [5]?
A: 141 ng/mL

Q: And the concentration at 2 h [6]?
A: 159 ng/mL

Q: What about the concentration at 2 h [7] of the same molecule?
A: 132 ng/mL

Q: And the concentration at 2 h [8]?
A: 144 ng/mL

Q: And the concentration at 4 h [5]?
A: 86 ng/mL

Q: What about the concentration at 4 h [6] of the same molecule?
A: 77.7 ng/mL

Q: And the concentration at 4 h [7]?
A: 64.5 ng/mL

Q: What about the concentration at 4 h [8] of the same molecule?
A: 76.1 ng/mL

Q: What about the concentration at 8 h [5] of the same molecule?
A: 27.5 ng/mL

Q: What about the concentration at 8 h [6] of the same molecule?
A: 24.8 ng/mL

Q: And the concentration at 8 h [7]?
A: 20.3 ng/mL

Q: What about the concentration at 8 h [8] of the same molecule?
A: 24.2 ng/mL

Q: What about the concentration at 24 h [5] of the same molecule?
A: 0.454 ng/mL

Q: What about the concentration at 24 h [6] of the same molecule?
A: 0.545 ng/mL

Q: What about the concentration at 24 h [7] of the same molecule?
A: 0.488 ng/mL

Q: And the concentration at 24 h [8]?
A: 0.496 ng/mL

Q: And the Tmax (plasma, Rat (Sprague Dawley) po 10 mg/kg, individual Rat 4-6)?
A: 4 h
